{
  "source": "ChEMBL document CHEMBL4382249",
  "about": "“1-Arylsulfonyl indoline-benzamides as a new antitubulin agents, with inhibition of histone deacetylase” (Eur J Med Chem, 2019)",
  "key": {"Tubulin (Bos taurus)": {"target": "Tubulin (Bos taurus) (UniProt Q6B856+Q862L2+Q862F3)", "conditions": "at 5 µM; call rule not given here"}, "A549 [1]": {"test_system": "A549", "assay": "Growth inhibition of human A549 cells after 48 hrs by SRB assay", "format": "functional, cell-based", "conditions": "A549, 48 h"}, "[2]": {"assay": "Growth inhibition of human KB-7d cells after 48 hrs by SRB assay", "format": "functional", "conditions": "KB7D"}, "[3]": {"target": "T1, Protein deacetylase HDAC6 (Homo sapiens, UniProt Q9UBN7)", "T1 sequence (Q9UBN7 whole entry)": "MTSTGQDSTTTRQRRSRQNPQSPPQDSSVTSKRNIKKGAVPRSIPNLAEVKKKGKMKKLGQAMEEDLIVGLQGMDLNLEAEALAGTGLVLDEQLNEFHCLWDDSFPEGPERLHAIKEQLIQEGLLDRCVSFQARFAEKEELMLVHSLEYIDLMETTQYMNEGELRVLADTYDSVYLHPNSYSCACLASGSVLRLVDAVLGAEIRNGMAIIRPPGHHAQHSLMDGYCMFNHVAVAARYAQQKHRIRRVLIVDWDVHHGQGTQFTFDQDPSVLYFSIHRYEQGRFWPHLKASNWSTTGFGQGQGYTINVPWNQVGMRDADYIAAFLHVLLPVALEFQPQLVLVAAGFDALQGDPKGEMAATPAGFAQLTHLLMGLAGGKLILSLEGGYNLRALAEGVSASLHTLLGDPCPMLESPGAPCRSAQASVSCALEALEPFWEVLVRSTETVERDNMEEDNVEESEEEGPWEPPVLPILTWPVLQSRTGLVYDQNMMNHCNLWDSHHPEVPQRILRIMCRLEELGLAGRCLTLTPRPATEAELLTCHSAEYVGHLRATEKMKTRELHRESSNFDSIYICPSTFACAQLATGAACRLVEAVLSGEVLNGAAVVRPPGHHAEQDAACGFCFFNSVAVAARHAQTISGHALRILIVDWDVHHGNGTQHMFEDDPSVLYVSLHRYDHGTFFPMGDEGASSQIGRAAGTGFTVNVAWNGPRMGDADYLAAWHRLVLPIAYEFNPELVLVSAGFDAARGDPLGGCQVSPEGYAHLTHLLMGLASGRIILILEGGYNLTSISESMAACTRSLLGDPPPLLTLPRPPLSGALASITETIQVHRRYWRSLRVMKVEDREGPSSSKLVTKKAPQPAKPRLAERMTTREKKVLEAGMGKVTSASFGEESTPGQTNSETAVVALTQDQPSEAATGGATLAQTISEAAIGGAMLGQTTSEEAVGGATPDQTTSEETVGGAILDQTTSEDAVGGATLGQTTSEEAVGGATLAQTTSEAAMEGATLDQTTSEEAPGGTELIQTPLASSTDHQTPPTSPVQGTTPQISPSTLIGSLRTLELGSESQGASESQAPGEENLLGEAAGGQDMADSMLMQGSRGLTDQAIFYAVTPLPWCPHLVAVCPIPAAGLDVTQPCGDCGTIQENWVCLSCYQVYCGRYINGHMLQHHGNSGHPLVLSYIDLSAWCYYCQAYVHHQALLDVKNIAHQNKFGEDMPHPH", "assay": "Inhibition of human HDAC6 using RHKKAc as substrate by fluorescence assay"}, "Histone deacetylase 9": {"target": "Histone deacetylase 9 (Homo sapiens, UniProt Q9UKV0)", "sequence (Q9UKV0 whole entry)": "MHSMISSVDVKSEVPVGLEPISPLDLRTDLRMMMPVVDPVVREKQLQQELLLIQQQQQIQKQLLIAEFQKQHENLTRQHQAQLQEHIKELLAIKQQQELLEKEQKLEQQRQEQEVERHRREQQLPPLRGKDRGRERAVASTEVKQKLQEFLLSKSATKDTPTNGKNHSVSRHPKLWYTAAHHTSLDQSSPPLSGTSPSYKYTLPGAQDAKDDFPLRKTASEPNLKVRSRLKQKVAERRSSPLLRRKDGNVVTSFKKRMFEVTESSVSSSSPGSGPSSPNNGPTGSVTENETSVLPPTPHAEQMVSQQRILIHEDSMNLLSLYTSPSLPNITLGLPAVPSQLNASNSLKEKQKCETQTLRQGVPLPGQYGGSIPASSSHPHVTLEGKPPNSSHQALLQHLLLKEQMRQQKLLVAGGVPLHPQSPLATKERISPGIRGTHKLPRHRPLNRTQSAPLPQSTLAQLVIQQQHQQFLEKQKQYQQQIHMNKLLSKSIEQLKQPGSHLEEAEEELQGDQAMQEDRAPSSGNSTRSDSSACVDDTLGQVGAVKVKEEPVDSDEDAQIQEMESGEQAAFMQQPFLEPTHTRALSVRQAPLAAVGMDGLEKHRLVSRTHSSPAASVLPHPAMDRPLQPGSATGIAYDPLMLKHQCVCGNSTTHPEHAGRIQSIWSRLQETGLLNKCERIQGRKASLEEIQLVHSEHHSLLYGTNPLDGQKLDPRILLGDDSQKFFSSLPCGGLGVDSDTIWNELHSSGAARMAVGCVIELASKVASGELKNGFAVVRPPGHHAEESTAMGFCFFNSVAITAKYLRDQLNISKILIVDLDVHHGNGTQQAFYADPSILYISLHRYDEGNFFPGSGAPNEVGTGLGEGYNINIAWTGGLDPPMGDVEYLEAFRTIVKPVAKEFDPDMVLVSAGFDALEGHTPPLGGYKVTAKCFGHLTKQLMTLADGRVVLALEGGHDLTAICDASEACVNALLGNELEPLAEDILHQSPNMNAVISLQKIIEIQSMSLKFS", "assay": "Inhibition of human HDAC9 using fluorogenic p53 (379-382) peptide RHKK(Ac) as substrate by fluorescence assay"}, "A549 [4]": {"test_system": "A549", "assay": "Antitumor activity against human A549 cells xenografted in Balb/c nude mouse assessed as tumor growth inhibition at 50 mg/kg, ip daily measured up to 18 days relative to control", "format": "functional", "conditions": "432 h, read-out: TGI"}},
  "note": "pIC50: −log10 of the molar value.",
  "data": [
    {"smiles": "COc1ccc(S(=O)(=O)N2CCc3cccc(NCc4ccc(C(=O)Nc5ccccc5N)cc4)c32)cc1", "values": [
      {"measurement": "inhibition", "setting": "Tubulin (Bos taurus)", "result": 85.2, "unit": "%"},
      {"measurement": "pIC50", "setting": "A549 [1]", "result": 7.10},
      {"measurement": "pIC50", "setting": "[2]", "result": 7.33},
      {"measurement": "pIC50", "setting": "[3]", "result": 6.50},
      {"measurement": "IC50", "setting": "Histone deacetylase 9", "result": "Not Active"},
      {"measurement": "inhibition in vivo at 50 mg/kg", "setting": "A549 [4]", "result": 62.9, "unit": "%"}
    ]}
  ]
}
